Target: T1, type H3 central histamine receptors (Mus musculus, UniProt P58406)
T1 construct: from tissue; host or cells: brain of living NMRI mice, treated in vivo; brains removed afterwards for the metabolite RIA
Assay: Cerebral levels of Nτ-methylhistamine in the NMRI mouse (ex vivo, RIA)
Settings: one hour after treatment
Experimental: The purpose of this study, which was carried out in accordance with the method of Taylor et al. (Biochem. Pharm., 1992, 44, 1261-1267), is to evaluate the ex vivo activity of the compounds of the present invention as antagonists of type H3 central histamine receptors. […] An increase in the cerebral concentrations of N^τ-methylhistamine indicates an increase in the turn-over of histamine by blockage of the type H3 central histamine receptors.
NMRI mice (18-20 g) are treated intraperitoneally or orally with compounds of the present invention or with their carrier (20 ml/kg). One hour after the pharmacological treatment, the animals are sacrificed, and their brains are removed, frozen in liquid nitrogen, weighed and homogenised in 0.1N HClO4 at 4° C. The homogenised products are centrifuged (15 000 g, 17 min, 4° C.). The supernatants are recovered and divided into aliquots. The aliquots are frozen in liquid nitrogen and stored at −80° C. until analysis.
Determination of the cerebral levels of N′-methylhistamine is carried out by radio-immunological assay (RIA) using an assay kit. The tissue levels of N^τ-methylhistamine are expressed in μg/g of fresh brain. […]

T1 sequence (P58406 whole entry): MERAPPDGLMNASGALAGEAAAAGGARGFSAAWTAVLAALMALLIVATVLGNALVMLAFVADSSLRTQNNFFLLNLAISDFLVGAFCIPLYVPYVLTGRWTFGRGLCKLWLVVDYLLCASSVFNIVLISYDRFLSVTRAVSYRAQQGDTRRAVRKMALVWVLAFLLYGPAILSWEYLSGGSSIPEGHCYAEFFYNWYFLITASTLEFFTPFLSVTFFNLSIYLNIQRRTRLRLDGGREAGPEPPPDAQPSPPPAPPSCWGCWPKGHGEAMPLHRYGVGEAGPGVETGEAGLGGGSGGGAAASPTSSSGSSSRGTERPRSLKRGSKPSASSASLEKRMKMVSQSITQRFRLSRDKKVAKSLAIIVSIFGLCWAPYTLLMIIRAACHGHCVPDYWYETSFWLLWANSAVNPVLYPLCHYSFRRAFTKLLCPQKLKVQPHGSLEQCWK

Row | Structure (SMILES) | increase in the endogenous cerebral concentrations of Nτ-methylhistamine (3 mg/kg PO) | increase in the endogenous cerebral concentrations of Nτ-methylhistamine (10 mg/kg PO)
1 | CC(C)N1CCN(c2ccc(-c3ccc(NS(=O)(=O)C(C)C)cc3)cn2)CC1.Cl.Cl [Example 7, N-{4-[6(4-Isopropylpiperazin-1-yl)pyridin-3-yl]phenyl}propane-2-sulphonamide dihydrochloride] | 138% | –
2 | CS(=O)(=O)Nc1ccc(-c2ccc(N3CCN(C4CC4)CC3)nc2)cc1.Cl.Cl [Example 4, N-{4-[6-(4-Cyclopropylpiperazin-1-yl)pyridin-3-yl]phenyl}methane-sulphonamide dihydrochloride] | – | 162%

Reference: US20060258671A1, “Phenylpyridylpiperazine compounds” (priority 2005, published 2006)
